US20090170937A1, “Amino Acid Derivatives” (Proximagen Ltd., priority 2006, published 2009)
Non-standard residues stand in square brackets, D forms with d. Residues, ends and D or L forms follow the SMILES beside them. *: point of attachment. Dopa = N[C@@H](Cc1ccc(O)c(O)c1)C(=O)O; αMeF = C[C@](N)(Cc1ccccc1)C(=O)O; Aic = NC1(C(=O)O)Cc2ccccc2C1; Ac6c = NC1(C(=O)O)CCCCC1; Ac5c = NC1(C(=O)O)CCCC1; Ac4c = NC1(C(=O)O)CCC1; Ac3c = NC1(C(=O)O)CC1; Aib = CC(C)(N)C(=O)O; OcHex = C1CCC(O*)CC1; OBn = c1ccc(CO*)cc1; OiPr = CC(C)O*

Test system: 6-OHDA-lesioned rats
Assay: Induction of rotational activity in 6-OHDA-lesioned rats
Format: in vivo, Male Wistar rats
Conditions: i.p., 63.4 μmole/kg, after benserazide 10 mg/kg; active = >10 turns per 10 minutes

For `COC(=O)[C@H](Cc1ccc(O)c(O)c1)NC(=O)C(C)(C)N.Cl` [Example 1, 1-[(S)-2-(3,4-Dihydroxyphenyl)-1-methoxycarbonylethylcarbamoyl]-1-methyl-ethylammonium Chloride] (H-[Aib]-[Dopa]-OMe), the “duration of activity (as % of L-DOPA duration of activity)” value was 63%.

Same assay, conditions: p.o., 63.4 μmole/kg, after benserazide 10 mg/kg; active = >10 turns per 10 minutes

In order of falling “duration of activity (as % of L-DOPA duration of activity)” value:
1. COC(=O)[C@H](Cc1ccc(O)c(O)c1)NC(=O)C1(N)CCCC1.Cl [Example 7, 1-[(S)-2-(3,4-Dihydroxyphenyl)-1-methoxycarbonylethylcarbamoyl]-cyclopentyl-ammonium Chloride] (H-[Ac5c]-[Dopa]-OMe)  97%
2. COC(=O)[C@H](Cc1ccc(O)c(O)c1)NC(=O)C1(N)CCCCC1.Cl [Example 4, 1-[(S)-2-(3,4-Dihydroxy-phenyl)-1-methoxycarbonyl-ethylcarbamoyl]-cyclohexyl-ammonium Chloride] (H-[Ac6c]-[Dopa]-OMe)  84%
3. Cl.NC1(C(=O)N[C@@H](Cc2ccc(O)c(O)c2)C(=O)O)CC1 [Example 21, 1-[(S)-1-Carboxy-2-(3,4-dihydroxyphenyl)-ethylcarbamoyl]-cyclopropyl Ammonium Chloride] (H-[Ac3c]-[Dopa]-OH)  76%
4. COC(=O)[C@H](Cc1ccc(OC(C)=O)c(OC(C)=O)c1)NC(=O)C(C)(C)N.Cl [Example 2, 1-[(S)-2-(3,4-Diacetoxyphenyl)-1-methoxycarbonylethylcarbamoyl]-1-methyl-ethylammonium Chloride]  73%
5. COC(=O)[C@H](Cc1ccc(O)c(O)c1)NC(=O)C1(N)CCC1.Cl [Example 10] (H-[Ac4c]-[Dopa]-OMe)  73%
6. CC(C)OC(=O)[C@H](Cc1ccc(O)c(O)c1)NC(=O)C(C)(C)N.Cl [Example 17, 1-[(S)-2-(3,4-Dihydroxyphenyl)-1-isopropoxycarbonylethylcarbamoyl]-1-methyl-ethylammonium Chloride] (H-[Aib]-[Dopa]-OiPr)  72%
7. CC(C)(N)C(=O)N[C@@H](Cc1ccc(O)c(O)c1)C(=O)OC1CCCCC1.Cl [Example 18] (H-[Aib]-[Dopa]-OcHex)  70%
8. COC(=O)[C@H](Cc1ccc(OC(C)=O)c(OC(C)=O)c1)NC(=O)C1(N)CCC1.Cl [Example 11, 1-[(S)-2-(3,4-Diacetoxyphenyl)-1-methoxycarbonylethylcarbamoyl]-cyclobutyl-ammonium Chloride]  67%
9. Cl.NC1(C(=O)N[C@@H](Cc2ccc(O)c(O)c2)C(=O)O)CCCC1 [Example 14, 1-[(S)-1-Carboxy-2-(3,4-dihydroxyphenyl)-ethylcarbamoyl]-cyclopentyl-ammonium Chloride] (H-[Ac5c]-[Dopa]-OH)  62%
10. CC(C)(N)C(=O)N[C@@H](Cc1ccc(O)c(O)c1)C(=O)O.Cl [Example 6, 1-[(S)-1-Carboxy-2-(3,4-dihydroxyphenyl)-ethylcarbamoyl]-1-methylethyl-ammonium Chloride] (H-[Aib]-[Dopa]-OH)  57%
11. COC(=O)[C@H](Cc1ccc(O)c(O)c1)NC(=O)[C@@](C)(N)Cc1ccccc1.Cl [Example 12, (S)-1-[(S)-2-(3,4-Dihydroxyphenyl)-1-methoxycarbonyl-ethylcarbamoyl]-1-methyl-2-phenylethylammonium Chloride] (H-[αMeF]-[Dopa]-OMe)  52%
12. CC(C)CCOC(=O)[C@H](Cc1ccc(O)c(O)c1)NC(=O)C(C)(C)N.Cl [Example 23, 1-[(S)-2-(3,4-Dihydroxyphenyl)-1-(3-methylbutoxycarbonyl)-ethylcarbamoyl]-1-methylethylammonium Chloride]  49%
13. CC(=O)Oc1ccc(C[C@H](NC(=O)C(C)(C)N)C(=O)O)cc1OC(C)=O.Cl [Example 9, 1-[(S)-1-Carboxy-2-(3,4-diacetoxyphenyl)-ethylcarbamoyl]-1-methylethyl-ammonium Chloride]  45%
14. COC(=O)[C@H](Cc1ccc(OC(C)=O)c(OC(C)=O)c1)NC(=O)C1(N)CCCC1.Cl [Example 8, 1-[(S)-2-(3,4-Diacetoxyphenyl)-1-methoxycarbonylethylcarbamoyl]-cyclopentyl-ammonium Chloride]  44%
15. COC(=O)[C@H](Cc1ccc(OC(C)=O)c(OC(C)=O)c1)NC(=O)C1(N)CCCCC1.Cl [Example 5, 1-[(S)-2-(3,4-Diacetoxyphenyl)-1-methoxycarbonylethylcarbamoyl]-cyclohexyl-ammonium Chloride]  42%
16. C[C@](N)(Cc1ccccc1)C(=O)N[C@@H](Cc1ccc(O)c(O)c1)C(=O)O.Cl [Example 13, (S)-1-[(S)-1-Carboxy-2-(3,4-dihydroxyphenyl)-ethylcarbamoyl]-1-methyl-2-phenylethylammonium Chloride] (H-[αMeF]-[Dopa]-OH)  40%
17. CC(C)(N)C(=O)N[C@@H](Cc1ccc(O)c(O)c1)C(=O)OCc1ccccc1.Cl [Example 3, 1-[(S)-1-Benzyloxycarbonyl-2-(3,4-dihydroxyphenyl)-ethylcarbamoyl]-1-methyl-ethylammonium Chloride] (H-[Aib]-[Dopa]-OBn)  38%
18. Cl.NC1(C(=O)N[C@@H](Cc2ccc(O)c(O)c2)C(=O)O)CCC1 [Example 20, 1-[(S)-1-Carboxy-2-(3,4-dihydroxyphenyl)-ethylcarbamoyl]-cyclobutyl-ammonium Chloride] (H-[Ac4c]-[Dopa]-OH)  37%
19. COC(=O)[C@H](Cc1ccc(OC(=O)CC(C)(C)C)c(OC(=O)CC(C)(C)C)c1)NC(=O)C1(N)CCCCC1.Cl [Example 24, 1-{(S)-2-[3,4-Bis-(3,3-dimethylbutyryloxy)-phenyl]-1-methoxycarbonyl-ethylcarbamoyl}-cyclohexylammonium Chloride]  36%
20. COC(=O)[C@H](Cc1ccc(O)c(O)c1)NC(=O)C1(N)Cc2ccccc2C1.Cl [Example 15, 2-[(S)-2-(3,4-Dihydroxyphenyl)-1-methoxycarbonylethylcarbamoyl]-indan-2-yl-ammonium Chloride] (H-[Aic]-[Dopa]-OMe)  31%
21. COC(=O)[C@H](Cc1ccc(OC(C)=O)c(OC(C)=O)c1)NC(=O)C1(N)Cc2ccccc2C1.Cl [Example 16, 2-[(S)-2-(3,4-Diacetoxyphenyl)-1-methoxycarbonylethylcarbamoyl]-indan-2-yl-ammonium Chloride]  21%
22. COC(=O)[C@H](Cc1ccc(OC(C)=O)c(OC(C)=O)c1)NC(=O)[C@@](C)(N)Cc1ccccc1.Cl [Example 22, (S)-1-[(S)-2-(3,4-Diacetoxyphenyl)-1-methoxycarbonylethylcarbamoyl]-1-methyl-2-phenylethylammonium Chloride]  19%
